From patent publication US10045987B2, “Imidazoyl anilide derivatives and methods of use” (Codexis, Inc., priority 2014, dated 2018)

What was measured:
[1] = system: K562 lymphoblast cell line; test: K562 cytotoxicity assay at RBC, Cell Titer-Glo 2.0, 72 hours; type: cell-based; details: class relative to nilotinib
Experimental: In this Example, experiments conducted at RBC to assess the cytotoxicity of nilotinib and compounds 14, 17, 19, 21, and 22 (i.e., test compounds) are described. All of the test compounds were kept between 4° C. to 8° C. in solid form or as solution in DMSO.
The cell line K562 was obtained from the ATCC. Test compounds were dissolved in DMSO (1 mM stock). Cell Titer-Glo® 2.0 Luminescent cell viability assay reagent was obtained from Promega. K562 lymphoblast cell line was cultured in Iscove's Modified Dulbecco's medium supplemented with 10% FBS. 100 μg/ml penicillin and 100 μg/ml streptomycin were added to all culture media. Cultures were maintained at 37° C. in a humidified atmosphere of 5% CO2 and 95% air. Test compounds in DMSO were added in a source plate. 25 nL of test compounds was delivered from the source plate to each well of the 384-well cell culture plates by Echo 550. 25 μl of culture medium containing 1000 cells for each cell line was added to the wells of the cell culture plates. Cells were incubated with test compounds at 37° C., 5% CO2 for 72 hours. 25 μl of Cell Titer Glo 2.0 reagent was added to each well. The contents were mixed on an orbital shaker for 2 minutes and incubated at room temperature for 10 minutes to stabilize luminescent signal. Luminescence was recorded by Envision 2104 Multilabel Reader (PerkinElmer). The number of viable cells in culture was determined based on quantization of the ATP present in each culture well. The IC50 values were calculated and the IC50 curves were plotted using the GraphPad Prism 4 program based on a sigmoidal dose-response equation.

K-562 cells = test: K-562 cytotoxicity assay, CellTiter 96 Aqueous One, 72 hours; details: for K-562 IC50: 72 hours, CellTiter 96, class relative to nilotinib
PDGFRα[h] = PDGFRα[h] (Homo sapiens, UniProt P16234); test: biochemical
Experimental: (§1) The assays were performed at Merck-Milliore, using their standard assay protocols

hERG potassium channels = hERG potassium channels (Homo sapiens, UniProt Q12809)
Experimental: CHO cells stably expressing hERG potassium channels obtained from Aviva BioSciences were used for this test.
Visual check for precipitation was conducted before testing.
The hERG QPatchHTX assay was conducted at room temperature. The whole-cell protocols, voltage protocols and application protocols were established with QPatch Assay Software 5.0 (Sophion).

cKit[h] = target: T1, cKit[h] (Homo sapiens, UniProt P10721); test: cKit kinase assay at Merck-Milliore (standard protocol); type: biochemical
T1 construct: purchased Merck-Milliore (contract assay service)
Experimental: as §1

Flt1[h] = target: T2, Flt1[h] (Homo sapiens, UniProt P17948); test: Flt1 kinase assay at Merck-Milliore (standard protocol); type: biochemical
T2 construct: purchased Merck-Milliore (contract assay service)
Experimental: as §1

cSRC = target: T3, cSRC (Homo sapiens, UniProt P12931); test: cSRC kinase assay at Merck-Milliore (standard protocol); type: biochemical
T3 construct: purchased Merck-Milliore (contract assay service)
Experimental: as §1

SMILES | K-562 IC50 (RBC) [1] | K-562 IC50 (K-562 cells) | hERG inhibition compared with Nilotinib (hERG potassium channels) | further results
Cc1cn(-c2cc(NC(=O)c3ccc(C)c(Nc4nccc(-c5cccnc5)n4)c3)cc(C(F)(F)F)c2)cn1 [Compound 1, 4-methyl-N-[3-(4-methyl-1H-imidazol-1-yl)-5-(trifluoromethyl)phenyl]-3-[(4-pyridin-3-ylpyrimidin-2-yl)amino]benzamide, reference compound] | + | + |  | 
Cc1ccc(C(=O)Nc2cc(-n3cnc(CO)c3)cc(C(F)(F)F)c2)cc1Nc1nccc(-c2cccnc2)n1 [Compound 2, N-[3-[4-(hydroxymethyl)imidazol-1-yl]-5-(trifluoromethyl)phenyl]-4-methyl-3-[[4-(3-pyridyl)pyrimidin-2-yl]amino]benzamide] |  | ++ (IC50 more than 25% smaller than IC50 for nilotinib) | less inhibiting to hERG than Nilotinib | IC50 (PDGFRα[h]): 1900 nM; hERG IC50 (μM) (hERG potassium channels): +; IC50 (cKit[h]): 1300 nM; IC50 (Flt1[h]): 1100 nM; IC50 (cSRC): 1300 nM
Cc1ccc(C(=O)Nc2cc(-n3cnc(COC(=O)C4CC4)c3)cc(C(F)(F)F)c2)cc1Nc1nccc(-c2cccnc2)n1 [Compound 11] |  | ++ (IC50 more than 25% smaller than IC50 for nilotinib) | less inhibiting to hERG than Nilotinib | 
Cc1ccc(C(=O)Nc2cc(-n3cnc(COC(N)=O)c3)cc(C(F)(F)F)c2)cc1Nc1nccc(-c2cccnc2)n1 [Compound 12] |  | +++ (IC50 more than 75% great than IC50 for nilotinib) | less inhibiting to hERG than Nilotinib | IC50 (K-562 cells; Homo sapiens, K562, 72 h, read-out: K-562 IC50): < 1 nM
Cc1ccc(C(=O)Nc2cc(-n3cnc(CNCC(=O)O)c3)cc(C(F)(F)F)c2)cc1Nc1nccc(-c2cccnc2)n1 [Compound 21] | − (IC50 more than 25% great than IC50 for nilotinib) |  |  | 
COC(=O)CNCc1cn(-c2cc(NC(=O)c3ccc(C)c(Nc4nccc(-c5cccnc5)n4)c3)cc(C(F)(F)F)c2)cn1 [Compound 22] | − (IC50 more than 25% great than IC50 for nilotinib) |  |  | 
